Laboratory results reported in US8247211B2, “Glycopeptide antibiotics” (American Cyanamid Company, priority 2001, dated 2012).
Values after ≈ are worked out from the molar mass of the structure shown.

Legend:
Experiment in all cases: In vitro antibacterial evaluation: minimum inhibitory concentration (MIC), broth dilution method
Format in all cases: cell-based
Details in all cases: 18 hours at 35° C.
[1] = system: Streptococcus sp.
Outline: (§1)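 Susceptibility determined by NCCLS-recommended broth dilution (M7-A2), Muller-Hinton II […]. Concentration span 64-0.06 μg/mL, inoculum 5×10^5 CFU/mL. Isolates include strains resistant to methicillin, penicillin and/or vancomycin.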

[2] = system: Escherichia coli
Outline: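 Following NCCLS approved standard M7-A2, compounds are serially diluted from 64 to 0.06 μg/mL in Muller-Hinton II […] and inoculated at 5×10^5 CFU/mL; the MIC is the minimum concentration at which growth is inhibited.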

[3] = system: Enterococcus sp.
Outline: as §1

[4] = system: Staphylococcus sp.
Outline: as §1

[5] = broth dilution, inoculum 5×10^5 CFU/mL

CC(c1ccccc1)C1NC(=O)CNC(=O)C(CO)NC(=O)C(C(O)C2CNC(=N)N2C2OC(CO)C(O)C(O)C2O)NC(=O)C(C(O)C2CNC(=N)N2)NC(=O)C(Cc2ccc(OC3OC(CO)C(OC4OC(CO)C(OCC=C(c5ccccc5)c5ccccc5)C(O)C4O)C(O)C3O)cc2)NC1=O (stereo not drawn) [Example 241a, Cyclo[glycyl-β-methylphenylalanyl-O-[4-O-[4-O-(3,3-diphenylprop-2-en-1-yl)hexopyranosyl]-hexopyranosyl]tyrosyl-3-(2-iminoimidazolidin-4-yl)seryl-3-[3-hexopyranosyl-2-iminoimidazolidin-4-yl)serylseryl]]
MIC Streptococcus agalactiae (GC 4564) ([1]; Streptococcus agalactiae (GC 4564)): <0.06 µg/mL
MIC Streptococcus pneumoniae (ATCC 6301) ([1]; Streptococcus pneumoniae (ATCC 6301)): <0.06 µg/mL
MIC Streptococcus pneumoniae (GC 1894) ([1]; Streptococcus pneumoniae (GC 1894)): <0.06 µg/mL
MIC Streptococcus pneumoniae (GC 4565) ([1]; Streptococcus pneumoniae (GC 4565)): <0.06 µg/mL
MIC Streptococcus pyogenes (GC 4563) ([1]; Streptococcus pyogenes (GC 4563)): <0.06 µg/mL
MIC Streptococcus agalactiae (GC 4564) [1, 5]: <0.06 µg/mL
MIC Streptococcus pneumoniae (ATCC 6301) [1, 5]: <0.06 µg/mL
MIC Streptococcus pneumoniae (GC 1894) [1, 5]: <0.06 µg/mL
MIC Streptococcus pneumoniae (GC 4565) [1, 5]: <0.06 µg/mL
MIC Streptococcus pyogenes (GC 4563) [1, 5]: <0.06 µg/mL
MIC Escherichia coli (ATCC 25922) ([2]; Escherichia coli (ATCC 25922)): >64 µg/mL
MIC Escherichia coli (GC 4559) ([2]; Escherichia coli (GC 4559)): >64 µg/mL
MIC Escherichia coli (GC 4560) ([2]; Escherichia coli (GC 4560)): 2 µg/mL (≈ 1.34 µM)
MIC Enterococcus avium (GC 4558) ([3]; Enterococcus avium (GC 4558)): 2 µg/mL (≈ 1.34 µM)
MIC Enterococcus faecalis (ATCC 29212) ([3]; Enterococcus faecalis (ATCC 29212)): 4 µg/mL (≈ 2.69 µM)
MIC Enterococcus faecalis (GC 2242) ([3]; Enterococcus faecalis (GC 2242)): 4 µg/mL (≈ 2.69 µM)
MIC Enterococcus faecalis (GC 2691) ([3]; Enterococcus faecalis (GC 2691)): 2 µg/mL (≈ 1.34 µM)
MIC Enterococcus faecalis (GC 3059) ([3]; Enterococcus faecalis (GC 3059)): 2 µg/mL (≈ 1.34 µM)
MIC Enterococcus faecalis (GC 4552) ([3]; Enterococcus faecalis (GC 4552)): 4 µg/mL (≈ 2.69 µM)
MIC Enterococcus faecalis (GC 4553) ([3]; Enterococcus faecalis (GC 4553)): 4 µg/mL (≈ 2.69 µM)
MIC Enterococcus faecalis (GC 4554) ([3]; Enterococcus faecalis (GC 4554)): 4 µg/mL (≈ 2.69 µM)
MIC Enterococcus faecalis (GC 6189) ([3]; Enterococcus faecalis (GC 6189)): 2 µg/mL (≈ 1.34 µM)
MIC Enterococcus faecium (GC 2243) ([3]; Enterococcus faecium (GC 2243)): 2 µg/mL (≈ 1.34 µM)
MIC Enterococcus faecium (GC 4556) ([3]; Enterococcus faecium (GC 4556)): 2 µg/mL (≈ 1.34 µM)
MIC Enterococcus faecium (GC 4557) ([3]; Enterococcus faecium (GC 4557)): 2 µg/mL (≈ 1.34 µM)
MIC Enterococcus faecalis (GC 2242) [3, 5]: 4 µg/mL (≈ 2.69 µM)
MIC Enterococcus faecalis (GC 2691) [3, 5]: 2 µg/mL (≈ 1.34 µM)
MIC Enterococcus faecalis (GC 3059) [3, 5]: 2 µg/mL (≈ 1.34 µM)
MIC Coagulase Negative Staphylococcus (GC 4547) ([4]; Coagulase Negative Staphylococcus (GC 4547)): 4 µg/mL (≈ 2.69 µM)
MIC Coagulase Negative Staphylococcus (GC 4548) ([4]; Coagulase Negative Staphylococcus (GC 4548)): 2 µg/mL (≈ 1.34 µM)
MIC Coagulase Negative Staphylococcus (GC 4549) ([4]; Coagulase Negative Staphylococcus (GC 4549)): 1 µg/mL (≈ 0.672 µM)
MIC Coagulase Negative Staphylococcus (GC 4551) ([4]; Coagulase Negative Staphylococcus (GC 4551)): 4 µg/mL (≈ 2.69 µM)
MIC Coagulase Negative Staphylococcus (GC 6257) ([4]; Coagulase Negative Staphylococcus (GC 6257)): 1 µg/mL (≈ 0.672 µM)
MIC Staphylococcus aureus (ATCC 29213) ([4]; Staphylococcus aureus (ATCC 29213)): 2 µg/mL (≈ 1.34 µM)
MIC Staphylococcus aureus (GC 1131) ([4]; Staphylococcus aureus (GC 1131)): 2 µg/mL (≈ 1.34 µM)
MIC Staphylococcus aureus (GC 3051) ([4]; Staphylococcus aureus (GC 3051)): 2 µg/mL (≈ 1.34 µM)
MIC Staphylococcus aureus (GC 3053) ([4]; Staphylococcus aureus (GC 3053)): 2 µg/mL (≈ 1.34 µM)
MIC Staphylococcus aureus (GC 4541) ([4]; Staphylococcus aureus (GC 4541)): 2 µg/mL (≈ 1.34 µM)
MIC Staphylococcus aureus (GC 4542) ([4]; Staphylococcus aureus (GC 4542)): 2 µg/mL (≈ 1.34 µM)
MIC Staphylococcus aureus (GC 4544) ([4]; Staphylococcus aureus (GC 4544)): 4 µg/mL (≈ 2.69 µM)
MIC Staphylococcus aureus (GC 4545) ([4]; Staphylococcus aureus (GC 4545)): 2 µg/mL (≈ 1.34 µM)
MIC Staphylococcus aureus-SMITH (GC 4543) ([4]; Staphylococcus aureus-SMITH (GC 4543)): 2 µg/mL (≈ 1.34 µM)
MIC Staphylococcus haemolyticus (GC 4546) ([4]; Staphylococcus haemolyticus (GC 4546)): 2 µg/mL (≈ 1.34 µM)
